# Test results published in article PMC10376691, “Inhibition of Acetylcholinesterase and Amyloid-β Aggregation by Piceatannol and Analogs: Assessing In Vitro and In Vivo Impact on a Murine Model of Scopolamine-Induced Memory Impairment” (Antioxidants, 2023).
# Entries after “also recorded” stand apart in the source; their conditions may differ.
# Columns and labels:
# [1] = after oral RSV 75 mg/kg, athymic nude mice; cited from earlier work
# [2] = system: scopolamine-induced amnesiac ICR mice; experiment: Passive avoidance test in scopolamine-induced amnesiac ICR mice; type: in vivo, mouse; settings: PIC 50 mg/kg oral once a day, donepezil 5 mg/kg oral, scopolamine 1 mg/kg i.p.
# Description: The scopolamine-induced cognitive dysfunctions of amnesiac ICR mice were used to evaluate the effects of PIC pre-treatments on the improvement of learning and memory functions, following previous reports. The animal experimental protocols were reviewed and approved by the Institutional Animal Care and Use Committee, Taipei Medical University (No. LAC-2021-0488). After a two-week acclimation, the mice were randomly divided into four groups (N = 5 for each group). In the first stage, the mice in the PIC group were orally pre-treated with PIC (50 mg/kg) using a feeding tube, once a day from day 1 to day 7; the mice in the blank, control, and donepezil groups were treated with the same volume of distilled water from day 1 to day 7. In the second stage, on day 8 and day 9, the mice in the PIC group and the donepezil group were orally treated once with PIC (50 mg/kg) and donepezil (positive control, 5 mg/kg), respectively, using a feeding tube; the mice in the blank and the control groups were treated with the same volume of distilled water. After 30 min, each mouse was injected intraperitoneally with scopolamine (1 mg/kg, dissolved in PBS), and the mice in the blank group were each injected with an equal volume of PBS instead of the scopolamine solution. Again, 30 min after the scopolamine or PBS injection, a learning and memory evaluation was performed on each mouse with the use of a 2-day passive avoidance test. All the mice were sacrificed at the end of the animal experiments, and the brain tissues of the mice in each group were isolated, weighted, and stored at −80 °C for further use.
# A 2-day passive avoidance test, which included an acquisition trial on the first day and a retention trial on the second day, was used to evaluate the learning and memory functions of the scopolamine-induced cognitive dysfunctions of amnesiac ICR mice after PIC and donepezil treatments, following previous reports. A shuttle chamber (AccuScan Instruments Inc., Columbus, OH, USA) with a light box and a dark box separated by a sliding door was used. On day 8, after acclimation around the shuttle chamber for 30 min, each scopolamine-injected or PBS-injected mouse was placed in the light box for the acquisition trial. Once the mouse entered the dark box, the step-through latency (s) was recorded, and the sliding door was closed at the same time. Immediately after, the mouse was administered an electric foot shock (0.3 mA for 3 s) via the wired metal floor and then sent back to the cage. […] The step-through latency (period of time that each mouse stayed in the light box) was recorded again. […] The protein content of the whole brain extracts from the mice was quantified using the BCA protein kit, with bovine serum albumin as the standard protein. […]
compound,measurement,setting,value
"Oc1cc(O)cc(C=Cc2ccc(O)c(O)c2)c1 [PIC, 3,5,3′,4′-tetrahydroxystilbene]",PIC detected in the liver,[1],11.50 nmol/g
same,PIC detected in the plasma,[1],5.25 µmol/L
same,PIC detected in the skin,[1],2.4 nmol/g
same,"step-through latency, acquisition trial (first day)",[2],no significant difference among the groups
same,"step-through latency, retention trial (second day)",[2]; vs control p < 0.05,improved learning behavior; also recorded: longer staying time
